In patent publication US6803380B1, “5-aryl-1h-1,2,4-triazole compounds as inhibitors of cyclooxygenase-2 and pharmaceutical compositions containing them” (Laboratoire Theramex, priority 1999, dated 2004):

Assays:
COX-1 = target: T1, COX-1 (Ovis aries, UniProt P05979); test: Inhibition of purified COX-1 activity in vitro (PGE2 by enzymo-immunoassay); assay type: biochemical, ram; conditions: concentration 1 μM; for % COX-1 inhibition: negative sign = inhibition
T1 construct: Purified COX-1 from ram seminal vesicles; purchased Cayman Chemicals; host or cells: ram seminal vesicles (tissue-purified)
T1 sequence (P05979 25-600): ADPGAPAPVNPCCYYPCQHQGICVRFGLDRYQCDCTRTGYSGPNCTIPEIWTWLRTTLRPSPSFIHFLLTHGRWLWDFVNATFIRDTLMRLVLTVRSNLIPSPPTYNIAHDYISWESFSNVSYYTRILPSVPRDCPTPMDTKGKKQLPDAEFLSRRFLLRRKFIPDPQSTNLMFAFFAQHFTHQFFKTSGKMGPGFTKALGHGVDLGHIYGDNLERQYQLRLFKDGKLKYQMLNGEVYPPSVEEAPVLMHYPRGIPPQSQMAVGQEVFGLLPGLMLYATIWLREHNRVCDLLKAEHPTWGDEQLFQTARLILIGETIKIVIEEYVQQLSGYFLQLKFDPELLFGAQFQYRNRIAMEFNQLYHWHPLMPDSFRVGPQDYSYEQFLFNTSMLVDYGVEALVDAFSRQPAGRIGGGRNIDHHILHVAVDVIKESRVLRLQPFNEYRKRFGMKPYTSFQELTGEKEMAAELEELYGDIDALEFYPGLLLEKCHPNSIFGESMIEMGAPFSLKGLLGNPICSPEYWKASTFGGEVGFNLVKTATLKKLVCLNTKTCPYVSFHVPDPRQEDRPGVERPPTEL
Procedure: (§1) Example compounds according to the invention were tested for their ability to inhibit COX-1 and/or COX-2 activities in vitro. Purified COX-1 from ram seminal vesicles and purified COX-2 from ewe placenta (both from Cayman Chemicals) were incubated for 10 minutes at 25° C. in the presence of their substrate, arachidonic acid (5 μM), with or without test compounds or standard inhibitors. Prostaglandin E2, the reaction product, was measured by enzymo-immunoassay (R&D Systems). Each individual value results from duplicate determinations. Final inhibition data are means±standard errors of at least (3) independent experiments performed on as many different days.

COX-2 [1] = target: T2, COX-2 (Ovis aries, UniProt P79208); test: Inhibition of purified COX-2 activity in vitro (PGE2 by enzymo-immunoassay); assay type: biochemical, ewe; conditions: for selective inhibition of COX-2 (in words) / inhibition at 1 µM: concentration 1 μM; for inhibition at 1 µM: read-out: % COX-2 inhibition
T2 construct: purified COX-2 from ewe placenta; purchased Cayman Chemicals; host or cells: ewe placenta (tissue-purified)
T2 sequence (P79208 17-603): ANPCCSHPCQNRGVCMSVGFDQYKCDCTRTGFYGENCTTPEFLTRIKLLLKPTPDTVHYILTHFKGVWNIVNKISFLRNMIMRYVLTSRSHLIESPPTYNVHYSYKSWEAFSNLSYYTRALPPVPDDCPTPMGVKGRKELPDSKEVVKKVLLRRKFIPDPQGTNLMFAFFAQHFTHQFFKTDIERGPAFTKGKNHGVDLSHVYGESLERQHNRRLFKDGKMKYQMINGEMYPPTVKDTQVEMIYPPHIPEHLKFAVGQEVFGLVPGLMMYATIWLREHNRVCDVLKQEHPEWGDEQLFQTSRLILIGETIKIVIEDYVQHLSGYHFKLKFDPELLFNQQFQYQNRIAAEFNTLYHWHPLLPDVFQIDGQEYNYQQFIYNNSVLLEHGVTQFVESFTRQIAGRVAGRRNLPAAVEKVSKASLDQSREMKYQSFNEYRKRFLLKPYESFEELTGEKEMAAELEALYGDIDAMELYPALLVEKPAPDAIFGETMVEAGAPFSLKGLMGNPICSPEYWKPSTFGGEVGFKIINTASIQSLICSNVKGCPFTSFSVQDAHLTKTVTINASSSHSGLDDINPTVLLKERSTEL
Procedure: as §1

Cox-2 [2] = target: T3, Cox-2 (Homo sapiens, UniProt P35354); conditions: literature; cited from earlier work
T3 sequence (P35354 18-604): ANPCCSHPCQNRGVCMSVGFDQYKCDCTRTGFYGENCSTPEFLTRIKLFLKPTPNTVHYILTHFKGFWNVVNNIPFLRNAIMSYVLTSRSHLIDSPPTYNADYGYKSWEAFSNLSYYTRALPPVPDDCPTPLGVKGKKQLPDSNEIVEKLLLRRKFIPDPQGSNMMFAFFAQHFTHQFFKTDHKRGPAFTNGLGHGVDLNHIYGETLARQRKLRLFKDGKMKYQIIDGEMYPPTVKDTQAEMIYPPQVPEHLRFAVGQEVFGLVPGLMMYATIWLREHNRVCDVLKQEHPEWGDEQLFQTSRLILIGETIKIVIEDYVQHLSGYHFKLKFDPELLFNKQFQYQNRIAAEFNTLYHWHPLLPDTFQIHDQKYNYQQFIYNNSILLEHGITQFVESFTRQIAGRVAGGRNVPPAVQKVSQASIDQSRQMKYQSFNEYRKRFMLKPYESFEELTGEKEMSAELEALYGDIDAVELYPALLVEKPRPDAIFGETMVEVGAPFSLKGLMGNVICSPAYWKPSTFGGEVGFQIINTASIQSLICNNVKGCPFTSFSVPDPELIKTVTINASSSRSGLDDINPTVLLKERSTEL

cyclooxygenase-1 = cyclooxygenase-1 (Homo sapiens, UniProt P23219); conditions: literature; cited from earlier work
cyclooxygenase-2 = target: T4, cyclooxygenase-2 (Homo sapiens, UniProt P35354); conditions: literature; cited from earlier work
T4 sequence (P35354 18-604): T3 sequence (P35354 18-604)

Chain of cyclooxygenase-1 (P23219 24-599, species assumed): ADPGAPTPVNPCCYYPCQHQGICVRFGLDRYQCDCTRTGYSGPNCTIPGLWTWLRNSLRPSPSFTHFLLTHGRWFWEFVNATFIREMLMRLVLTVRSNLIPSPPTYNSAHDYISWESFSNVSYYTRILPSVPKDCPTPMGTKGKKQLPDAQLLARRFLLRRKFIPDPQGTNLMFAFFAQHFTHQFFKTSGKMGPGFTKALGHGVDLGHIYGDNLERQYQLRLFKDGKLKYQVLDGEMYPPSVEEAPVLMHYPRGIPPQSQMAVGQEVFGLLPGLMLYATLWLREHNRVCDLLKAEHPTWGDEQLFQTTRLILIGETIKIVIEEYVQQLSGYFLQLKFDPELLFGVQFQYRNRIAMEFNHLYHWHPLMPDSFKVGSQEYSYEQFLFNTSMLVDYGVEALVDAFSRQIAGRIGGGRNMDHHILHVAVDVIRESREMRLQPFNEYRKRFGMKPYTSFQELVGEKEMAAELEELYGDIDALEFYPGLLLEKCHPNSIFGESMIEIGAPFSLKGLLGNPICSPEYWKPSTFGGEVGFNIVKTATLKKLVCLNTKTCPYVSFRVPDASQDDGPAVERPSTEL

% COX-1 inhibition (COX-1) [%]	selective inhibition of COX-2 (in words) (COX-2 [1])	inhibition at 1 µM (COX-2 [1]) [%]	COX-2 inhibitory potency compared with nimesulide (in words) (COX-2 [1]; same concentration, 1 μM)	COX-2 potency relative to nimesulide (COX-2 [1]; same inhibition at 1 μM vs. 10 μM nimesulide)	melting point [°C]	Structure (SMILES)	inhibition of COX-1 (in words) (COX-1)	Cox-2 inhibitory activity (in words) (Cox-2 [2])	inhibition of cyclooxygenase-1 (in words) (cyclooxygenase-1)	inhibition of cyclooxygenase-2 (in words) (cyclooxygenase-2)
−5 ± 12	able to inhibit COX-2 selectively	53	even more potent	about 10 times	198	CS(=O)(=O)c1ccc(-c2nc(C(F)(F)F)nn2-c2ccc(Br)cc2)cc1 [Example 18, 1-(4-bromo-phenyl)-5-(4-methylsulfonyl-phenyl)-3-trifluoromethyl-1H-1,2,4-triazole]	did not show any significant inhibition of COX-1			
−5 ± 9	able to inhibit COX-2 selectively	31 ± 10			188	CS(=O)(=O)Nc1ccc(-n2nc(C(F)(F)F)nc2-c2ccc(S(C)(=O)=O)cc2)cc1 [Example 25, 1-(4-methylsulfonylamino-phenyl)-5-(4-methylsulfonyl-phenyl)-3-trifluoromethyl-1H-1,2,4-triazole]	did not show any significant inhibition of COX-1			
						Fc1ccc(-c2nc(C(F)(F)F)nn2-c2ccc(Cl)cc2)cc1 [compound (a)]		moderate Cox-2 inhibitory activity		
						CS(=O)(=O)c1ccc(-c2nc(C#N)nn2-c2ccc(F)cc2)cc1 [compound (b)]			weak and non selective inhibitors	weak and non selective inhibitors
